Experimental data reported in patent US7803778B2, “Glucose transport inhibitors and methods of use” (Theracos, Inc., priority 2006, dated 2010).
Read-outs that look alike come from different tables or passages of the source.

Legend:
[1] = biological target: T1, human SGLT2 (Homo sapiens, UniProt P31639); assay: Methyl-α-D-[U-14C]glucopyranoside uptake assay, SGLT2; assay type: cell-based; settings: HEK293.ETN cells stably expressing human SGLT2, sodium-dependent uptake, 1.5 h incubation
T1 construct: A full-length cDNA clone expressing human SGLT2
T1 sequence (P31639 1-672): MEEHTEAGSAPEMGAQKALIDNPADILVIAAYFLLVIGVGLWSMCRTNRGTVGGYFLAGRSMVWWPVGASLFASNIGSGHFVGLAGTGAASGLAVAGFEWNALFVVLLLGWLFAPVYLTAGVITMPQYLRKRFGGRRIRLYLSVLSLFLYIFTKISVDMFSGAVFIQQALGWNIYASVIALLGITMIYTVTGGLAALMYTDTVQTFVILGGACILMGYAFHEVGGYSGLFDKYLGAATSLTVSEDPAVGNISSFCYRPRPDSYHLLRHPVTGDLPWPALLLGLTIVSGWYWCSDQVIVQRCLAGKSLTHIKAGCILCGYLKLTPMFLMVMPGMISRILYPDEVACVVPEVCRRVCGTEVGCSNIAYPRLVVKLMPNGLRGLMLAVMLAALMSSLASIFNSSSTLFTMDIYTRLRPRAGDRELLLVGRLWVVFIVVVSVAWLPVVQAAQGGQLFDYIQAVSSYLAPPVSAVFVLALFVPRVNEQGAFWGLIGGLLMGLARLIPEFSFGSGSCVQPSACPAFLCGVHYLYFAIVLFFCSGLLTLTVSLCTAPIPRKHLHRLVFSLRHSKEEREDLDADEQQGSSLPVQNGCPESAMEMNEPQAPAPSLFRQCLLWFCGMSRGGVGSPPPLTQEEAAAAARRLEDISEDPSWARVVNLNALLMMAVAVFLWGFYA
Text: A full-length cDNA clone expressing human SGLT2 (GenScript Corporation) was subcloned into Hind III and Not I sites of pEAK15 expression vector. Clones harboring the cDNA inserts were identified by restriction analysis.
Plasmid containing human SGLT2 was linearized with Nsi I and purified by agarose gel electrophoresis. Using Lipofectamine 2000 Transfection Reagent (Invitrogen Corporation), DNA was transfected into HEK293.ETN cells and cultured in Dulbecco's Modified Eagle Medium (DMEM) containing 10% fetal bovine serum (FBS) at 37° C. under 5% CO2 for 24 h. Transfectants were selected in the same growth medium supplemented with puromycin (Invitrogen Corporation) for two weeks. Puromycin-resistant cells were recovered and seeded on a fresh 96-well plate (single cell per well) and cultured in the presence of puromycin until cells became confluent. Puromycin-resistant clones were evaluated for SGLT2 activity in the methyl-α-D-[U-^14C]glucopyranoside uptake assay described below.
(§1) Cells expressing SGLT1 or SGLT2 were seeded on 96-well ScintiPlate scintillating plates (PerkinElmer, Inc.) in DMEM containing 10% FBS (1×10^5 cells per well in 100 μl medium) incubated at 37° C. under 5% CO2 for 48 h prior to the assay. Cells were washed twice with 150 μl of either sodium buffer (137 mM NaCl, 5.4 mM KCl, 2.8 mM CaCl2, 1.2 mM MgCl2, 10 mM tris(hydroxymethyl)aminomethane/N-2-hydroxyethylpiperazine-N′-ethanesulfonic acid [Tris/Hepes], pH 7.2) or sodium-free buffer (137 mM N-methyl-glucamine, 5.4 mM KCl, 2.8 mM CaCl2, 1.2 mM MgCl2, 10 mM Tris/Hepes, pH 7.2). Test compound in 50 μl each of sodium or sodium-free buffer containing 40 μCi/ml methyl-α-D-[U-^14C]glucopyranoside (Amersham Biosciences/GE Healthcare) was added per well of a 96-well plate and incubated at 37° C. with shaking for either 2 h (SGLT1 assay) or 1.5 h (SGLT2 assay). Cells were washed twice with 150 μl of wash buffer (137 mM N-methylglucamine, 10 mM Tris/Hepes, pH 7.2) and methyl-α-D-[U-^14C]glucopyranoside uptake was quantitated using a TopCount scintillation counter (PerkinElmer, Inc.). Sodium-dependent glucopyranoside uptake was measured by subtracting the values obtained with sodium-free buffer from those obtained using sodium buffer (average of triplicate determinations).

[2] = biological target: T2, human SGLT1 (Homo sapiens, UniProt P13866); assay: Methyl-α-D-[U-14C]glucopyranoside uptake assay, SGLT1; assay type: cell-based; settings: COS-7 cells transfected with human SGLT1; sodium-dependent uptake, 2 h incubation
T2 construct: Full-length human SGLT1 cDNA on pDream2.1 expression vector; host or cells: COS-7 cells
T2 sequence (P13866 1-664): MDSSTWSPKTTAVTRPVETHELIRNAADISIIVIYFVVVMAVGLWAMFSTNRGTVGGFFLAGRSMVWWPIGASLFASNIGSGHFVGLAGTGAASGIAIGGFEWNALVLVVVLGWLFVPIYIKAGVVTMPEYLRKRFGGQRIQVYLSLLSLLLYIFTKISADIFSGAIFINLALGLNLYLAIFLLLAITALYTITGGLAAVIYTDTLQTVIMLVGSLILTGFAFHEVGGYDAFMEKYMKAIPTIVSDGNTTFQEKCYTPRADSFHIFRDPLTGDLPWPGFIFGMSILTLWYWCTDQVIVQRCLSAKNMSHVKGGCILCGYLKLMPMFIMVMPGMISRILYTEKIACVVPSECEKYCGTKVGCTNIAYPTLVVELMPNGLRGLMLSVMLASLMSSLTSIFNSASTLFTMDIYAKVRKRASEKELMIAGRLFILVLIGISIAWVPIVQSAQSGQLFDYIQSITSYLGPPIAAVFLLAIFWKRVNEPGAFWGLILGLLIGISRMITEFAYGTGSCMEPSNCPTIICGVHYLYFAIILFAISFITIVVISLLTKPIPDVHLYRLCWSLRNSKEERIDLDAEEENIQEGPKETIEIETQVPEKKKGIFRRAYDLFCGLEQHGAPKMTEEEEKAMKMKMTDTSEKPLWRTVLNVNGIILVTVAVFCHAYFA
Procedure: Full-length human SGLT1 cDNA on pDream2.1 expression vector was obtained from GenScript Corporation and propagated in Escherichia coli strain DH5α using Luria-Bertani (LB) medium containing ampicillin. Plasmid DNA was isolated using the QIAGEN Plasmid Midi Kit (QIAGEN Inc.). […] Transfected cells were stored in DMEM containing 10% dimethyl sulfoxide (DMSO) at −80° C.
as §1

Compound | IC50 ([1]; read-out: IC50 SGLT2) | IC50 [2] | IC50 ([1]; read-out: SGLT2 IC50)
CCc1ccc(Cc2cc3c(cc2Cl)CC[C@]32O[C@H](CO)[C@@H](O)[C@H](O)[C@H]2O)cc1 [Compound AV, (1S,3′R,4′S,5′S,6′R)-5-chloro-6-(4-ethylbenzyl)-6′-(hydroxymethyl)-2,3,3′,4′,5′,6′-hexahydrospiro[indene-1,2′-pyran]-3′,4′,5′-triol] | < 1000 nM | 1000 to 10000 nM | –
CCc1ccc(Cc2cc3c(cc2Cl)C(CCO)C[C@]32O[C@H](CO)[C@@H](O)[C@H](O)[C@H]2O)cc1 (stereo partly drawn) [Compound BA, (1S,3′R,4′S,5′S,6′R)-5-chloro-6-(4-ethylbenzyl)-3-(2-hydroxyethyl)-6′-(hydroxymethyl)-2,3,3′,4′,5′,6′-hexahydrospiro[indene-1,2′-pyran]-3′,4′,5′-triol] | < 1000 nM | > 10000 nM | –
CCc1ccc(Cc2cc3c(cc2Cl)C(O)C[C@]32O[C@H](CO)[C@@H](O)[C@H](O)[C@H]2O)cc1 (stereo partly drawn) [Compound BB, (1S,3′R,4′S,5′S,6′R)-5-chloro-6-(4-ethylbenzyl)-6′-(hydroxymethyl)-2,3,3′,4′,5′,6′-hexahydrospiro[indene-1,2′-pyran]-3,3′,4′,5′-tetraol] | < 1000 nM | > 10000 nM | –
CCc1ccc(Cc2cc3c(cc2Cl)C(OC)C[C@]32O[C@H](CO)[C@@H](O)[C@H](O)[C@H]2O)cc1 (stereo partly drawn) [Compound BD, (1S,3′R,4′S,5′S,6′R)-5-chloro-6-(4-ethylbenzyl)-6′-(hydroxymethyl)-3-methoxy-2,3,3′,4′,5′,6′-hexahydrospiro[indene-1,2′-pyran]-3′,4′,5′-triol] | < 1000 nM | > 10000 nM | –
CCc1ccc(Cc2cc3c(cc2Cl)C(F)C[C@]32O[C@H](CO)[C@@H](O)[C@H](O)[C@H]2O)cc1 (stereo partly drawn) [Compound BE, (1S,3′R,4′S,5′S,6′R)-5-chloro-6-(4-ethylbenzyl)-3-fluoro-6′-(hydroxymethyl)-2,3,3′,4′,5′,6′-hexahydrospiro[indene-1,2′-pyran]-3′,4′,5′-triol] | < 1000 nM | > 10000 nM | –
OC[C@H]1O[C@]2(CCc3cc(Cl)c(Cc4ccc(O[C@H]5CCOC5)cc4)cc32)[C@H](O)[C@@H](O)[C@@H]1O [Compound BG, (1S,3′R,4′S,5′S,6′R)-5-chloro-6′-(hydroxymethyl)-6-(4-((S)-tetrahydrofuran-3-yloxy)benzyl)-2,3,3′,4′,5′,6′-hexahydrospiro[indene-1,2′-pyran]-3′,4′,5′-triol] | < 1000 nM | > 10000 nM | –
CCOc1ccc(Cc2ccc3c(c2)[C@]2(OC3)O[C@H](CO)[C@@H](O)[C@H](O)[C@H]2O)cc1 [Compound G, (1S,3′R,4′S,5′S,6′R)-6-(4-ethoxybenzyl)-6′-(hydroxymethyl)-3′,4′,5′,6′-tetrahydro-3H-spiro[isobenzofuran-1,2′-pyran]-3′,4′,5′-triol] | < 1000 nM | > 10000 nM | 71 nM
CCOc1ccc(Cc2cc3c(cc2Cl)CO[C@]32O[C@H](CO)[C@@H](O)[C@H](O)[C@H]2O)cc1 [Compound H, (1S,3′R,4′S,5′S,6′R)-5-chloro-6-(4-ethoxybenzyl)-6′-(hydroxymethyl)-3′,4′,5′,6′-tetrahydro-3H-spiro[isobenzofuran-1,2′-pyran]-3′,4′,5′-triol] | < 1000 nM | 1000 to 10000 nM | 5.1 nM
CCc1ccc(Cc2cc3c(cc2Cl)CO[C@]32O[C@H](CO)[C@@H](O)[C@H](O)[C@H]2O)cc1 [Compound K, (1S,3′R,4′S,5′S,6′R)-5-chloro-6-(4-ethylbenzyl)-6′-(hydroxymethyl)-3′,4′,5′,6′-tetrahydro-3H-spiro[isobenzofuran-1,2′-pyran]-3′,4′,5′-triol] | < 1000 nM | < 1000 nM | –

Other lines, results leading:

IC50 ([1]; read-out: IC50 SGLT2) | IC50 [2] | IC50 ([1]; read-out: SGLT2 IC50) | Compound
< 1000 nM | 1000 to 10000 nM | – | CCc1ccc(Cc2cc3c(cc2Cl)CO[C@]32O[C@H](COC)[C@@H](O)[C@H](O)[C@H]2O)cc1 [Compound AG, (1S,3′R,4′S,5′S,6′R)-5-chloro-6-(4-ethylbenzyl)-6′-(methoxymethyl)-3′,4′,5′,6′-tetrahydro-3H-spiro[isobenzofuran-1,2′-pyran]-3′,4′,5′-triol]
< 1000 nM | 1000 to 10000 nM | – | CCc1ccc(Cc2cc3c(cc2Cl)CO[C@]32O[C@H](COC(C)=O)[C@@H](O)[C@H](O)[C@H]2O)cc1 [Compound AH, ((1S,3′R,4′S,5′S,6′R)-5-chloro-6-(4-ethylbenzyl)-3′,4′,5′-trihydroxy-3′,4′,5′,6′-tetrahydro-3H-spiro[isobenzofuran-1,2′-pyran]-6′-yl)methyl acetate]
< 1000 nM | > 10000 nM | – | CCc1ccc(Cc2cc3c(cc2Cl)CO[C@]32O[C@H](COCC(F)(F)F)[C@@H](O)[C@H](O)[C@H]2O)cc1 [Compound AI, (1S,3′R,4′S,5′S,6′R)-5-chloro-6-(4-ethylbenzyl)-6′-((2,2,2-trifluoroethoxy)methyl)-3′,4′,5′,6′-tetrahydro-3H-spiro[isobenzofuran-1,2′-pyran]-3′,4′,5′-triol]
< 1000 nM | 1000 to 10000 nM | – | CCc1ccc(Cc2cc3c(cc2Cl)CO[C@]32O[C@H](CNC(C)=O)[C@@H](O)[C@H](O)[C@H]2O)cc1 [Compound AM, N-(((1S,3′R,4′S,5′S,6′R)-5-chloro-6-(4-ethylbenzyl)-3′,4′,5′-trihydroxy-3′,4′,5′,6′-tetrahydro-3H-spiro[isobenzofuran-1,2′-pyran]-6′-yl)methyl)acetamide]
< 1000 nM | > 10000 nM | – | CCc1ccc(C(=O)c2cc3c(cc2Cl)CO[C@]32O[C@H](CO)[C@@H](O)[C@H](O)[C@H]2O)cc1 [Compound AQ, ((1S,3′R,4′S,5′S,6′R)-5-chloro-3′,4′,5′-trihydroxy-6′-(hydroxymethyl)-3′,4′,5′,6′-tetrahydro-3H-spiro[isobenzofuran-1,2′-pyran]-6-yl)(4-ethylphenyl)methanone]
